In patent publication US11058680B2, “Combinations of opioid/TLR4 antagonists and acetaminophen for use in the treatment of emotional pain and insomnia” (Allodynic Threapeutics, LLC, priority 2016, dated 2021):

System: migraine attacks
Assay: Naltrexone/acetaminophen open-label pilot study, acute treatment of migraine: headache pain (4-point scale; relief score ≤1, pain-free score = 0), associated symptoms, additional meds
Format: in vivo, human
Description: Sixteen unique patients were enrolled in an open phase pilot study for the acute treatment of migraine attacks, insomnia, and emotional pain. Of the sixteen patients, eleven were evaluated for one migraine attack, one for two attacks, two for four attacks, one for six attacks, and one for fourteen attacks. A total of forty-one […] treatments were evaluated. Patients received a single dose of one of the following treatment options:
The majority of the patients remained in the clinic for observation for 2 hours after dosing. They completed headache diary assessments immediately before and after dosing at time points: 7, 15, and 30 minutes; and 1, 1.5, 2, 3, 6, 12, 24, and 48 hours. Headache pain was assessed on a 4-point scale (0=none; 1=mild; 2=moderate; 3=severe). The assessment of photophobia, phonophobia, nausea, and neck/shoulder pain was assessed as present or absent. The assessment of emotional pain was recorded on a 4-point scale (0=none, 1=mild, 2=moderate, 3=severe). The assessment of difficulty sleeping or falling asleep (insomnia) was assessed on a 4-point scale (0=none, 1=mild, 2=moderate, 3=severe) at baseline, for the night before treatment and for the following nights at 24, and 48 hours. Patients recorded side effects severity at each time point. Patients recorded the time of the first rescue medication dose and all additional headache medications used within 48 hours. Patients were required to stay awake to record their assessments in the first 2 hours, sleeping was permitted thereafter. While asleep, assessments were completed according to patients' best estimation. For data analysis, it was assumed that a migraine attack is a unique patient. Patients were asked to specify (yes or no answer) to whether they experienced emotional pain symptoms such as: hurt feelings, sadness, fear, or anger. Patients who replied positively to having emotional pain were asked to specify the cause into one of the following options: relationship, work/school, money/debt, health, or loss/grief.

[1] = 7 min, NTX/APAP 2.25 mg/325 mg, NTX 2.25 mg
[2] = 7 min, NTX/APAP 3.25 mg/325 mg, NTX 3.25 mg
[3] = 7 min, NTX/APAP 5 mg/325 mg, NTX 5 mg
[4] = 7 min, naltrexone/acetaminophen 2.25 mg/325 mg (N=15), naltrexone 2.25 mg (N=3)
[5] = 15 min, NTX/APAP 2.25 mg/325 mg, NTX 2.25 mg
[6] = 15 min, NTX/APAP 3.25 mg/325 mg, NTX 3.25 mg
[7] = 15 min, NTX/APAP 5 mg/325 mg, NTX 5 mg
[8] = 15 min, NTX/APAP […]325 mg, NTX 1.5 mg
[9] = 15 min, naltrexone/acetaminophen 2.25 mg/325 mg (N=21), naltrexone 2.25 mg (N=9)
[10] = 30 min, NTX/APAP 2.25 mg/325 mg, NTX 2.25 mg
[11] = 30 min, NTX/APAP 3.25 mg/325 mg, NTX 3.25 mg
[12] = 30 min, NTX/APAP 5 mg/325 mg, NTX 5 mg
[13] = 30 min, NTX/APAP […]325 mg, NTX 1.5 mg
[14] = 30 min, naltrexone/acetaminophen 2.25 mg/325 mg (N=21), naltrexone 2.25 mg (N=9)
[15] = 1 h, NTX/APAP 2.25 mg/325 mg, NTX 2.25 mg
[16] = 1 h, NTX/APAP 3.25 mg/325 mg, NTX 3.25 mg

Compound: O=C1CC[C@@]2(O)[C@H]3Cc4ccc(O)c5c4[C@@]2(CCN3CC2CC2)[C@H]1O5 [naltrexone]
- Additional meds taken [1]: 0 (0)
- Headache pain-free [1]: 0 (0) n (%)
- Headache pain-relief [1]: 0 (0) n (%)
- Most bothersome symptom free [1]: 0 (0) n (%)
- Nausea-free [1]: 0 (0) n (%)
- Neck/shoulder pain-free [1]: 2 (67) n (%)
- Phonophobia-free [1]: 2 (67) n (%)
- Photophobia-free [1]: 0 (0) n (%)
- Additional meds taken [2]: 0
- Headache pain-free [2]: 0 n (%)
- Headache pain-relief [2]: 0 n (%)
- Most bothersome symptom free [2]: 0 n (%)
- Nausea-free [2]: 2 n (%)
- Neck/shoulder pain-free [2]: 0 n (%)
- Phonophobia-free [2]: 0 n (%)
- Photophobia-free [2]: 1 n (%)
- Additional meds taken [3]: 0
- Headache pain-free [3]: 0 n (%)
- Headache pain-relief [3]: 0 n (%)
- Most bothersome symptom free [3]: 0 n (%)
- Nausea-free [3]: 0 n (%)
- Neck/shoulder pain-free [3]: 0 n (%)
- Phonophobia-free [3]: 0 n (%)
- Photophobia-free [3]: 0 n (%)
- Additional meds taken (7 min, all doses combined): 0 (0)
- Headache pain-free (7 min, all doses combined): 0 (0) n (%)
- Headache pain-relief (7 min, all doses combined): 0 (0) n (%)
- Most bothersome symptom free (7 min, all doses combined): 0 (0) n (%)
- Nausea-free (7 min, all doses combined): 2 (33) n (%)
- Neck/shoulder pain-free (7 min, all doses combined): 2 (33) n (%)
- Phonophobia-free (7 min, all doses combined): 2 (33) n (%)
- Photophobia-free (7 min, all doses combined): 1 (16) n (%)
- Headache pain-free [4]: 0%
- Most bothersome symptom-free [4]: 0%
- Additional meds taken [5]: 0 (0)
- Headache pain-free [5]: 0 (0) n (%)
- Headache pain-relief [5]: 4 (44) n (%)
- Most bothersome symptom free [5]: 1 (11) n (%)
- Nausea-free [5]: 3 (33) n (%)
- Neck/shoulder pain-free [5]: 4 (44) n (%)
- Phonophobia-free [5]: 4 (44) n (%)
- Photophobia-free [5]: 3 (33) n (%)
- Additional meds taken [6]: 0
- Headache pain-free [6]: 0 n (%)
- Headache pain-relief [6]: 2 n (%)
- Most bothersome symptom free [6]: 0 n (%)
- Nausea-free [6]: 3 n (%)
- Neck/shoulder pain-free [6]: 0 n (%)
- Phonophobia-free [6]: 0 n (%)
- Photophobia-free [6]: 1 n (%)
- Additional meds taken [7]: 1
- Headache pain-free [7]: 0 n (%)
- Headache pain-relief [7]: 0 n (%)
- Most bothersome symptom free [7]: 0 n (%)
- Nausea-free [7]: 0 n (%)
- Neck/shoulder pain-free [7]: 0 n (%)
- Phonophobia-free [7]: 0 n (%)
- Photophobia-free [7]: 0 n (%)
- Additional meds taken [8]: 0
- Headache pain-free [8]: 0 n (%)
- Headache pain-relief [8]: 1 n (%)
- Most bothersome symptom free [8]: 0 n (%)
- Nausea-free [8]: 2 n (%)
- Neck/shoulder pain-free [8]: 1 n (%)
- Phonophobia-free [8]: 0 n (%)
- Photophobia-free [8]: 0 n (%)
- Additional meds taken (15 min, all doses combined): 0 (0)
- Headache pain-free (15 min, all doses combined): 0 (0) n (%)
- Headache pain-relief (15 min, all doses combined): 7 (44) n (%)
- Most bothersome symptom free (15 min, all doses combined): 1 (6) n (%)
- Nausea-free (15 min, all doses combined): 8 (50) n (%)
- Neck/shoulder pain-free (15 min, all doses combined): 5 (31) n (%)
- Phonophobia-free (15 min, all doses combined): 4 (25) n (%)
- Photophobia-free (15 min, all doses combined): 4 (25) n (%)
- Headache pain-free [9]: 0%
- Headache pain-relief [9]: 44%
- Most bothersome symptom-free [9]: 11%
- Additional meds taken [10]: 0
- Headache pain-free [10]: 2 (22) n (%)
- Headache pain-relief [10]: 7 (78) n (%)
- Most bothersome symptom free [10]: 6 (67) n (%)
- Nausea-free [10]: 8 (88) n (%)
- Neck/shoulder pain-free [10]: 6 (67) n (%)
- Phonophobia-free [10]: 7 (78) n (%)
- Photophobia-free [10]: 5 (56) n (%)
- Additional meds taken [11]: 0 (0)
- Headache pain-free [11]: 0 (0) n (%)
- Headache pain-relief [11]: 2 (66) n (%)
- Most bothersome symptom free [11]: 0 (0) n (%)
- Nausea-free [11]: 2 (66) n (%)
- Neck/shoulder pain-free [11]: 0 (0) n (%)
- Phonophobia-free [11]: 0 (0) n (%)
- Photophobia-free [11]: 1 (33) n (%)
- Additional meds taken [12]: 0 (0)
- Headache pain-free [12]: 0 (0) n (%)
- Headache pain-relief [12]: 0 (0) n (%)
- Most bothersome symptom free [12]: 0 (0) n (%)
- Nausea-free [12]: 0 (0) n (%)
- Neck/shoulder pain-free [12]: 1 (100) n (%)
- Phonophobia-free [12]: 1 (100) n (%)
- Photophobia-free [12]: 1 (100) n (%)
- Additional meds taken [13]: 0 (0)
- Headache pain-free [13]: 0 (0) n (%)
- Headache pain-relief [13]: 2 (66) n (%)
- Most bothersome symptom free [13]: 0 (0) n (%)
- Nausea-free [13]: 2 (66) n (%)
- Neck/shoulder pain-free [13]: 1 (33) n (%)
- Phonophobia-free [13]: 0 (0) n (%)
- Photophobia-free [13]: 0 (0) n (%)
- Additional meds taken (30 min, all doses combined): 0 (0)
- Headache pain-free (30 min, all doses combined): 2 (13) n (%)
- Headache pain-relief (30 min, all doses combined): 10 (63) n (%)
- Most bothersome symptom free (30 min, all doses combined): 6 (38) n (%)
- Nausea-free (30 min, all doses combined): 12 (75) n (%)
- Neck/shoulder pain-free (30 min, all doses combined): 8 (50) n (%)
- Phonophobia-free (30 min, all doses combined): 8 (50) n (%)
- Photophobia-free (30 min, all doses combined): 7 (48) n (%)
- Headache pain-free (30 min, naltrexone 1.5 mg (N=3)): 0%
- Headache pain-free [14]: 22%
- Headache pain-relief [14]: 78%
- Most bothersome symptom-free [14]: 67%
- Headache pain-free (30 min, naltrexone/acetaminophen 3.25 mg/325 mg (N=3), naltrexone 3.25 mg (N=3)): 0%
- Additional meds taken [15]: 0 (0)
- Headache pain-free [15]: 4 (44) n (%)
- Headache pain-relief [15]: 8 (88) n (%)
- Most bothersome symptom free [15]: 7 (77) n (%)
- Nausea-free [15]: 9 (100) n (%)
- Neck/shoulder pain-free [15]: 6 (66) n (%)
- Phonophobia-free [15]: 8 (88) n (%)
- Photophobia-free [15]: 6 (66) n (%)
- Additional meds taken [16]: 0
- Headache pain-free [16]: 3 (100) n (%)
